Patent US11723947B2, “Anti-senescence compounds and uses thereof” (Erasmus University Medical Center Rotterdam, priority 2015, dated 2023)
Peptide text beside a SMILES is read from it. * marks the point of attachment. Cbz = O=C(OCc1ccccc1)*; CH2F = FC*

Legend:
[1] = tested on: Senescent and control IMR90; details: for effect of pan-caspase inhibitor on the FOXO4 DRI effect on senescent cell viability: 20 μM inhibitor, 25 μM FOXO4 DRI, senescent IMR90, 6 days; for effect on effectiveness of FOXO4 DRI in lowering senescent cell viability: viability measured one day earlier
Experimental: The selectivity index (S.I.) for the EC50 values was determined after […] (GraphPad Prism) of the curves. […] Real-time cell density was measured using an xCELLigence detection system (ACEA Biosciences). Prior to the start of the measurement 50 μL DMEM 10% FCS was added to each well of an E-plate view 16 (Roche) to determine background signal. Non-senescent (2000 cells per well) and senescent (5000 cells/well) IMR90 fibroblasts were then plated in 150 μl medium. 16 hours later the E-plate was placed in the xCELLigence reader and the cell density was recorded every 30 minutes. […] Measurements continued for the indicated time-points. […] Experiment as in FIG. 2C, but with the indicated peptides. […] Cells were plated in 4-well Poly-L-Lysine coated glass bottom 35 mm dishes (D141410; Matsumi, Japan) and incubated with NucView488 Caspase-3 (4440; Essen Bioscience). […] 8h after addition the real-time imaging was initiated and every 30 min a grid of 3×3 pictures was imaged. The imaging continued for another 6 days and the images were concatenated using Zen imaging software. […] After 6 days cell viability was determined as in FIG. 2C). […] Experiment as in FIG. 2C, but according to the indicated treatment plan. Instead of one single dose, three doses were given (one day in between) of ⅓ that concentration each time. […] Left: Experiment as in FIG. 2C, but on cells pretreated once daily for two days with IL-1α Receptor Antagonist (RA), which blocks IL-1α/β signaling, recombinant IL-6 and recombinant IL-1α/β. […] Right: Similar experiment as in the left panel, except viability measured one day earlier. […] In senescent cells p53 signaling causes upregulation of the cell-cycle arrest and pro-survival protein p21Cip1. […] Experiment as in FIG. 2K. […] Experiment as in FIG. 2c, but with control and senescent IMR90 stable transduced with shRNAs against p53 or a control shRNA (shGFP).
A) Control IMR90 and IMR90 induced to senesce through 10Gy IR were plated in triplicate for each condition in a 96-well plate. […] After 6 days viability was determined through AqeousOne celltiter assay (Promega) according to the manufacturer's instructions.
Non-senescent (=“normal”, proliferating) IMR90 cells (ATCC #CCL-186, a diploid primary human fibroblast adherent cell line derived from fetal lung tissue) were irradiated with 10Gy Gamma-IR (IR=irradiation). After 7 days these cells are senescent and can be used for experiments comparing them to their non-irradiated (=non-senescent) counterparts. Senescent and non-senescent IMR90 fibroblasts were plated for longitudinal cell density measurement using the xCELLigence system (ACEA Biosciences, Inc., San Diego, Calif.).
5000 senescent (obtained as described above) and 2000 non-senescent IMR90 fibroblasts were plated in 96-well plates incubated with concentrations of NQDI between 0-20 μM and after 6 days cell viability was determined by AqueousOne CellTiter (MTT) assay according to the manufacturer's instructions.
5000 senescent (obtained as described above) and 2000 non-senescent IMR90 fibroblasts were plated in 96-well plates incubated with concentrations of R406, ranging from 16, 32, 64 to 128 nM and after 6 days cell viability was determined by AqueousOne CellTiter (MTT) assay according to the manufacturer's instructions.
Normal human IMR90 fibroblasts were exposed to 10 Gy Ionizing Radiation or treated 3× (bidaily) with 0.5 μM Doxorubicin. Seven days later they were processed for SA-β-Gal staining to visualize senescent cells. […] DAPI was used as a counterstain to visualize nuclei. […] After 6 days the cell viability was determined using an AqueousOne Celltiter (MTT) assay according to the manufacturer's instructions.

IMR90 cells = assay: Senescence markers in Doxorubicin-treated IMR90 in vitro; type: cell-based, human
Experimental: IMR90 cells were exposed twice to 0.5 μM Doxorubicin with one day in between. SA-β-GAL activity was determined 7 days later. […] This figure complements FIG. 4A+B by showing that next to the senescence markers SA-β-Gal and p16^ink4a also the SASP marker IL-6 is elevated by Doxorubicin. […] Mice were i.p. injected with 10 mg/kg Doxorubicin and analyzed for RLUC on the indicated time-points. Changes in RLUC intensity for 5 animals are plotted for the indicated timepoints after injection. […] Following one dose of Doxorubicin (10 mg/kg, i.p.) the mice were treated with FOXO4 DRI (n=6; 4×10 mg/kg i.v.) or PBS (n=4; 4× Mock) and processed for RLUC imaging after 14 d. […] Mice treated as indicated in FIG. 4F were analyzed for Bioluminescence. […] H) To improve the window for measuring healthspan changes, the treatment regime from FIG. 4F) was extended with one additional dose of Doxorubicin and milder FOXO4 DRI treatment. Following two doses of Doxorubicin (both 10 mg/kg i.p.) the mice (n=3 each group) were subsequentially treated with PBS or FOXO4 DRI (3×5 mg/kg, 1 d in between) and 14 d later analyzed for changes in healthspan. […] Post-mortem analysis of liver sections from mice (n=2 each group) treated as in FIG. 4H and stained for FOXO4. The number of FOXO4 foci was objectively quantified using ImageJ. […] Liver sections from the experiment in FIG. 4I were stained for IL-6. […] Mice treated as depicted in FIG. 4H (n=9 for PBS, n=11 for FOXO4 DRI) were analyzed for total body weight before and after Doxorubicin-exposure followed by treatment with PBS or FOXO4 DRI. The ratio was plotted. […] Experiment as in FIG. 4H. n=3 animals per group.
DAPI was used as a counterstain to visualize nuclei. […] The histograms show % viability for the indicated conditions (.

[2] = tested on: p16^ink4a-positive senescence; assay: Doxorubicin-induced senescence in p16::3MR mice (RLUC bioluminescence, SA-beta-GAL); type: in vivo, mouse
Experimental: IMR90 cells were exposed twice to 0.5 μM Doxorubicin with one day in between. SA-β-GAL activity was determined 7 days later. […] This figure complements FIG. 4A+B by showing that next to the senescence markers SA-β-Gal and p16^ink4a also the SASP marker IL-6 is elevated by Doxorubicin. […] Mice were i.p. injected with 10 mg/kg Doxorubicin and analyzed for RLUC on the indicated time-points. Changes in RLUC intensity for 5 animals are plotted for the indicated timepoints after injection. […] Following one dose of Doxorubicin (10 mg/kg, i.p.) the mice were treated with FOXO4 DRI (n=6; 4×10 mg/kg i.v.) or PBS (n=4; 4× Mock) and processed for RLUC imaging after 14 d. […] Mice treated as indicated in FIG. 4F were analyzed for Bioluminescence. […] H) To improve the window for measuring healthspan changes, the treatment regime from FIG. 4F) was extended with one additional dose of Doxorubicin and milder FOXO4 DRI treatment. Following two doses of Doxorubicin (both 10 mg/kg i.p.) the mice (n=3 each group) were subsequentially treated with PBS or FOXO4 DRI (3×5 mg/kg, 1 d in between) and 14 d later analyzed for changes in healthspan. […] Post-mortem analysis of liver sections from mice (n=2 each group) treated as in FIG. 4H and stained for FOXO4. The number of FOXO4 foci was objectively quantified using ImageJ. […] Mice treated as depicted in FIG. 4H (n=9 for PBS, n=11 for FOXO4 DRI) were analyzed for total body weight before and after Doxorubicin-exposure followed by treatment with PBS or FOXO4 DRI. […]
Our senescence-detection model makes use of a construct in which the promoter of p16^ink4a drives a so-called trimodality reporter (3MR) referred to as p16::3MR. […] RLUC and RFP allow visualization of senescent cells in real-time through bioluminescence and fluorescence, respectively. […] On day 0, p16::3MR mice (Demaria et al., Developmental Cell, 31:6 p. 722-733 (2014)) including the Supplemental Experimental procedures) were i.p. injected with 10 mg/kg Doxorubicin and RLUC activity as measure of senescence was determined on the indicated timepoints. […]

Doxorubicin-treated mice = assay: Doxorubicin-treated mice: liver sections, body weight, plasma ASAT and Amylase; type: in vivo
Experimental: IMR90 cells were exposed twice to 0.5 μM Doxorubicin with one day in between. SA-β-GAL activity was determined 7 days later. […] Mice were i.p. injected with 10 mg/kg Doxorubicin and analyzed for RLUC on the indicated time-points. Changes in RLUC intensity for 5 animals are plotted for the indicated timepoints after injection. […] Mice treated as indicated in FIG. 4F were analyzed for Bioluminescence. […] Liver sections from the experiment in FIG. 4I were stained for IL-6. […] The ratio was plotted. […] Experiment as in FIG. 4H. n=3 animals per group.

With `COC(=O)C[C@H](NC(=O)[C@H](C)NC(=O)[C@@H](NC(=O)OCc1ccccc1)C(C)C)C(=O)CF` [ZVAD-FMK] (Cbz-Val-Ala-Asp(OMe)-CH2F) the “effect of pan-caspase inhibitor on the FOXO4 DRI effect on senescent cell viability” value [1] was “potently blocked the effect of FOXO4 DRI to reduce senescent cell viability”.

`COc1cccc2c1C(=O)c1c(O)c3c(c(O)c1C2=O)C[C@@](O)(C(=O)CO)C[C@@H]3O[C@H]1C[C@H](N)[C@H](O)[C@H](C)O1` [Doxorubicin] was tested, and the SA-β-GAL expression (IMR90 cells; IMR90, twice 0.5 μM, 7 days later) was “induces SA-β-GAL expression in IMR90 cells in vitro”, the “IL-6 (SASP marker)” value (IMR90 cells; IMR90 in vitro) was “induces IL-6, indicative of elevated SASP” and the “expression of p16^ink4a and FOXO4” value (IMR90 cells; IMR90 in vitro) was “induces expression of p 16^ink4a and FOXO4 in IMR90 in vitro”. The “induction of senescence in vivo (RLUC)” value ([2]; 10 mg/kg i.p., p16::3MR mice) was “induces p16^ink4a-mediated senescence in vivo”, the “organ toxicity (liver, pancreas)” value (Doxorubicin-treated mice; mouse, in vivo, ip, 10 mg/kg) was “caused organ toxicity” and the total body weight (Doxorubicin-treated mice; two doses 10 mg/kg i.p., mice) was “causes a drop in body weight”.

For `COc1cc(Nc2ncc(F)c(Nc3ccc4c(n3)NC(=O)C(C)(C)O4)n2)cc(OC)c1OC` [R406, 6-(5-fluoro-2-(3,4,5-trimethoxyphenylamino)pyrimidin-4-ylamino)-2,2-dimethyl-2H-pyrido[3,2-b][1,4] oxazin-3 (4H)-one benzenesulfonate], the “SA-beta-GAL deposits in kidneys” value ([2]; Doxorubicin 10 mg/kg i.p. day 0, once daily i.v. day 11-14) was “reduced SA-beta-GAL deposits in kidneys”, the “Doxorubicin-induced senescence in vivo (bioluminescence)” value ([2]; Doxorubicin 10 mg/kg i.p. day 0, once daily i.v. day 11-14, imaging day 11 and day 21) was “repress Doxorubicin-induced senescence in vivo” and the “% viability over Mock, senescent and non-senescent IMR90” value ([1]; 16, 32, 64 to 128 nM, 6 days) was “selectively reduces senescent cell viability”.

For `O=c1c(O)c(-c2ccc(O)c(O)c2)oc2cc(O)cc(O)c12` [Quesrcetin], the “clearing of senescent IMR90, viability senescent vs non-senescent” value ([1]; Quesrcetin alone) was “inefficent towards clearing senescent IMR90”.

In the case of `C[C@]12CCC(=O)C=C1CC[C@@H]1[C@@H]2[C@@H](O)C[C@@]2(C)[C@H]1CC[C@]2(O)C(=O)CO` [Cortisol], the “effect on effectiveness of FOXO4 DRI in lowering senescent cell viability” value [1] is reported as “reduce the effectiveness of FOXO4 DRI in lowering senescent cell viability”.

In the case of `CN(C)CC[C@H](CSc1ccccc1)Nc1ccc(S(=O)(=O)NC(=O)c2ccc(N3CCN(Cc4ccccc4-c4ccc(Cl)cc4)CC3)cc2)cc1[N+](=O)[O-]` [ABT-737], the “toxicity to non-senescent cells” value [1] is reported as “proved to be toxic to non-senescent cells” and the “killing/clearing of senescent cells” value ([1]; 3× at ⅓, 3 days in between, senescence by IR) is reported as “only showed limited effectiveness on killing senescent cells”.

For “IL-1RA: IL-1α Receptor Antagonist, which blocks IL-1α/β signaling”, the “effect of pretreatment on effectiveness of FOXO4 DRI for killing senescent cells” value ([1]; pretreated once daily for two days, FOXO4 DRI 12.5 μM) was “reduced the effectiveness of FOXO4 DRI”.

For Lipopolysaccharide, the “effect on effectiveness of FOXO4 DRI in lowering senescent cell viability” value [1] was “improves it”.

`CC(C)[C@H](NC(=O)c1ccc2ccccc2n1)C(=O)N[C@@H](CC(=O)O)C(=O)COc1c(F)cccc1F` [QVD-OPH] was tested, and the “effect of pan-caspase inhibitor on the FOXO4 DRI effect on senescent cell viability” value [1] was “potently blocked the effect of FOXO4 DRI to reduce senescent cell viability”.
